Test results reported in PMC8954350, “Non-Canonical Cannabinoid Receptors with Distinct Binding and Signaling Properties in Prostate and Other Cancer Cell Types Mediate Cell Death” (International Journal of Molecular Sciences, 2022).
Where two headings read alike, the source gives them in different places.

Legend:
[1] = test system: CBRs expressed in DU-145 membranes; type: binding, human
Description: (§1) The assay was conducted as previously detailed. […] All binding reactions were conducted in triplicate, in a final volume of 1 mL, and, following mixing, were incubated for 20 min in a 37 °C water bath to achieve equilibrium. After incubation, reactions were terminated by rapid vacuum filtration through Whatman GF/B glass fiber filters (Brandel; Gaithersburg, MD, USA), followed by three washes of 4 mls of ice-cold filtration buffer (50 mM Tris, pH 7.4, and 0.05% bovine serum albumin). Samples were punched out from filter papers into scintillation vials, to which 4 mls of ScintiverseTM-BDR cocktail scintillation fluid (Fisher Scientific; Hampton, NH, USA) was added. Filters were incubated at room temperature for 24 h in scintillation fluid, vortexed, and radioactivity (measured as DPMs) was quantified via a liquid scintillation spectrophotometer (Tri Carb 2100 TR Liquid Scintillation Analyzer, Packard Instruments, Meriden, CT, USA).
(§2) These experiments were conducted to screen well-characterized cannabinoid ligands with high affinity for canonical CB1 and/or CB2Rs for binding to CBRs expressed in prostate cancer cells lines, as detailed in [33]. […] All binding reactions were conducted in triplicate, in a final volume of 1 mL, and, following mixing, were incubated for 20 min in a 37 °C water bath to achieve equilibrium. After incubation, reactions were terminated by rapid vacuum filtration and processed for radioactivity, as detailed in Section 4.5.1.

[2] = test system: CBRs expressed in PC-3 membranes; assay: [^3H]WIN-55,212-2 competitive binding screen, PC-3 membranes; design: species or system human
Description: as §1, §2

DU-145 cells [3] = assay: Mitochondrial membrane potential (JC-1 staining), DU-145 cells; type: cell-based, human; details: 24 h
DU-145 cells [4] = assay: LDH cytotoxicity, DU-145 cells; type: cell-based, human; details: 500 nM, 24 h
Description: DU-145 cells were seeded at a density of 130 × 10^3 cells/well in 6-well plates and maintained in an incubator at 37 °C with 5% CO2 for 24 h. […] Treated cells were incubated for an additional 24 h, followed by quantification of LDH release. LDH released from damaged or dying cells oxidizes lactate to produce NADH which then reacts with a water-soluble tetrazolium salt (WST) reagent to produce a yellow-colored product. The intensity of the yellow-colored product was detected with an OD reading at 450 nm (quantified by a BioTek microplate reader interfaced with SoftMax Pro 5.4.5 software; Winooski, VT, USA) and was directly proportional to the amount of LDH released. Percent cytotoxicity was calculated according to the manufacturer’s protocol as the following: % Cytotoxicity=OD450 Supernatant/Supernatant+Lysate

DU-145 cells [5] = assay: ATP-dependent cell viability, DU-145 cells; type: cell-based, human; details: co-incubation with 10 μM ligand, 24 h
Description: Adenosine 5′-triphosphate (ATP) levels were quantified as a measure of DU-145 cell viability in response to cannabinoid treatement using an ATP-luciferase-based bioluminescence assay kit (CellTiter-Glo®, Sigma, MO, USA) and BioTek microplate reader (Winooski, VT, USA). DU-145 cells were seeded at a density of 8 × 10^3 cells/well in a 96-well plate and incubated for 24 h at 37 °C with 5% CO2. The next day, cells were treated with either vehicle or experimental drugs (10 or 50 μM) and incubated for another 24 h at 37 °C with 5% CO2. ATP levels were assessed following incubation by interpolation from an ATP standard curve according to the manufacturer’s protocol, as described previously.

[6] = test system: CBRs expressed in PC-3 membranes; assay: [^35S]GTPγS binding, PC-3 membranes; type: biochemical, human; details: 10 μM
Description: [^35S]GTPγS binding experiments were conducted to examine G protein modulation by cannabinoids in prostate cancer cell lines DU-145 and PC-3, as detailed previously. Briefly, CHO-hCB2 (50 μg), PC3 (100 μg), or DU-145 (100 μg) membrane homogenates were incubated with a single receptor-saturating concentration (10^−5 M) of cannabinoid ligands to be examined and 0.1 nM [^35S]GTPγS in incubation buffer (20 mM HEPES buffer, pH 7.4, 10 μM GDP, 100 mM NaCl, 0.1% bovine serum albumin, and 10 mM MgCl2). Non-specific binding was defined as radioactivity remaining in the presence of 10 μM of non-radioactive GTPγS and subtracted from total binding to determine specific [^35S]GTPγS binding. All binding reactions were conducted in triplicate, in a final volume of 1 mL, and, following mixing, were incubated for 30 min at 30 °C. After incubation, reactions were terminated by rapid vacuum filtration through Whatman GF/B glass fiber filters (Brandel; Gaithersburg, MD, USA), followed by three washes of 4 mls of ice-cold filtration buffer (50 mM Tris, pH 7.4, and 0.05% bovine serum albumin). Samples were punched out from filter papers into scintillation vials, to which 4 mls of ScintiverseTM-BDR cocktail scintillation fluid (Fisher Scientific; Hampton, NH, USA) was added. Filters were incubated at room temperature for 24 h in scintillation fluid, vortexed, and radioactivity (measured as DPMs) was determined via a liquid scintillation spectrophotometer (Tri Carb 2100 TR Liquid Scintillation Analyzer, Packard Instruments, Meriden, CT, USA).

[7] = test system: CBRs expressed in DU-145 membranes; type: biochemical, human; details: 10 μM
Description: Non-specific binding was defined as radioactivity remaining in the presence of 10 μM of non-radioactive GTPγS and subtracted from total binding to determine specific [^35S]GTPγS binding. All binding reactions were conducted in triplicate, in a final volume of 1 mL, and, following mixing, were incubated for 30 min at 30 °C. After incubation, reactions were terminated by rapid vacuum filtration through Whatman GF/B glass fiber filters (Brandel; Gaithersburg, MD, USA), followed by three washes of 4 mls of ice-cold filtration buffer (50 mM Tris, pH 7.4, and 0.05% bovine serum albumin). Samples were punched out from filter papers into scintillation vials, to which 4 mls of ScintiverseTM-BDR cocktail scintillation fluid (Fisher Scientific; Hampton, NH, USA) was added. Filters were incubated at room temperature for 24 h in scintillation fluid, vortexed, and radioactivity (measured as DPMs) was determined via a liquid scintillation spectrophotometer (Tri Carb 2100 TR Liquid Scintillation Analyzer, Packard Instruments, Meriden, CT, USA).

[8] = 1 μM ligand, 1 nM radioligand, PC-3 membranes

Structure (SMILES) | displacement of [^3H]WIN-55,212-2 [1] | displacement of [^3H]WIN-55,212-2 [2, 8] | further results
COc1cc(CNC(=O)CCCC/C=C/C(C)C)ccc1O [capsaicin] | Neither the high affinity TRPV1 ligands capsaicin [38], PDDHV [39], and CAY-100448 [40] nor the TRPA1 ligand HC-030031 [41] produced significant displacement | – | –
Cc1ccc(C(=O)c2cn(CCCCCF)c3ccccc23)c2ccccc12 [MAM-2201] | failed to displace | failed to displace | –
CC(=O)O[C@@]12CO[C@@H]1C[C@H](O)[C@@]1(C)C(=O)[C@H](O)C3=C(C)[C@@H](OC(=O)[C@H](O)[C@@H](NC(=O)OC(C)(C)C)c4ccccc4)C[C@@](O)([C@@H](OC(=O)c4ccccc4)[C@H]21)C3(C)C [docetaxel] | – | – | mitochondrial membrane potential (MMP) depolarization (DU-145 cells [3]; 500 nM, JC-1): induced significant mitochondrial membrane depolarization; increase in LDH release (DU-145 cells [4]): 16.8 ± 3.4%
CC(C)c1ccc(NC(=O)Cn2cnc3c2c(=O)n(C)c(=O)n3C)cc1 [HC-030031] | Neither the high affinity TRPV1 ligands capsaicin [38], PDDHV [39], and CAY-100448 [40] nor the TRPA1 ligand HC-030031 [41] produced significant displacement | – | –
OCCOc1ccc(/C(=C(/CCCl)c2ccccc2)c2ccccc2)cc1 [OSP, ospemifene] | failed to displace | – | displacement of [^3H]WIN-55,212-2 [2]: failed to displace
Cc1c(C(=O)Nc2cccc(C(F)(F)F)c2)cc(-c2ccccc2)n1CCCN1CCOCC1 [HC-067047] | 22 ± 3.8% | – | –
O=C(NC12CC3CC(CC(C3)C1)C2)c1nn(CCCCCF)c2ccccc12 [5F-AKB48] | failed to displace | – | displacement of [^3H]WIN-55,212-2 [2]: failed to displace
CC(C)[C@H](NC(=O)c1nn(CCCCCF)c2ccccc12)C(N)=O [5F-AB-PINACA] | failed to displace | failed to displace | –
CCCCCc1cc(O)c2c(c1)OC(C)(C)[C@@H]1CCC(C)=C[C@@H]21 [THC, Δ^9-tetrahydrocannabinol] | failed to displace | failed to displace | –
Cc1c(C(=O)c2cccc3ccccc23)c2cccc3c2n1[C@@H](CN1CCOCC1)CO3 [WIN-55,212-3] | 13.9 ± 2.7% | – | displacement of [^3H]WIN-55,212-2 [2]: 20.7 ± 10.3%
Cc1c(C(=O)NN2CCCCC2)nn(-c2ccc(Cl)cc2Cl)c1-c1ccc(I)cc1 [AM-251] | – | – | MMP on co-incubation with GW-405833 (10 μM) (DU-145 cells [3]; 10 μM ligand co-incubated): MMP was not significantly reduced from vehicle-treated levels; attenuation of GW-405833 (50 μM)-induced reduction in ATP concentrations (DU-145 cells [5]): significantly attenuated reductions in ATP concentrations produced by GW-405833
CCCCCCCCCC(=O)O[C@@H]1[C@@H](C)[C@@]2(O)[C@@H](C=C(COC(=O)Cc3ccc(O)c(OC)c3)C[C@]3(O)C(=O)C(C)=C[C@@H]23)[C@@H]2C(C)(C)[C@]12OC(=O)CCCCCCCCC [PDDHV] | Neither the high affinity TRPV1 ligands capsaicin [38], PDDHV [39], and CAY-100448 [40] nor the TRPA1 ligand HC-030031 [41] produced significant displacement | – | –
C=C(C)[C@@H]1CCC(C)=C[C@H]1c1c(O)cc(CCCCC)cc1O [CBD, cannabidiol] | failed to displace | failed to displace | –
COc1ccc2c(c1)CCC(c1ccccc1)=C2c1ccc(OCCN2CCCC2)cc1 [nafoxidine] | produced significant (but less) displacement | produced significant (but less) displacement | modulation of [^35S]GTPγS binding [6]: had no effect on G protein activity; modulation of [^35S]GTPγS binding [7]: had no effect on G protein activity
CCCCC/C=C\C/C=C\C/C=C\C/C=C\CCCC(=O)NCCCl [ACEA] | failed to displace | – | displacement of [^3H]WIN-55,212-2 [2]: failed to displace
CCCCCCCC/C=C\CCCCCCCC(=O)N[C@H](C(=O)O)C(C)C [N-oleoyl-valine] | 15 ± 2.7% | – | –
O=C(Oc1cccc2ccccc12)c1cn(Cc2ccc(F)cc2)c2ccccc12 [FDU-PB-22] | failed to displace | failed to displace | –
